# In patent publication US20260138970A1, “MODULATORS OF THE CALCIUM SIGNALING CASCADE” (FONDAZIONE TELETHON ETS, priority 2022, published 2026):
# Experiments:
# FRT cells = assay: Fluo-4 Ca2+ mobilization assay in parental (null) FRT cells; type: cell-based, rat; details: for direct Ca2+ mobilization in the absence of UTP (Fluo-4): acute addition, Eact 5 μM, FIG. 2B; for direct Ca2+ mobilization in the absence of UTP (Fluo-4) / potentiation of UTP-dependent Ca2+ increase (Fluo-4): compounds 10 μM; for potentiation of UTP-dependent Ca2+ increase (Fluo-4): FIG. 2A
# Procedure: Experiments were performed using the microplate reader described for the HS-YFP assay. FRT and HEK293 cells were cultured until confluence in 96-well microplates (3603, Corning). Cells were washed 2 times with PBS (150 μl/wash) and then loaded for 1 h at 37° C. with 5 μM Fluo-4/AM (Thermo Fisher Scientific; catalog number: F23917) in PBS containing 10 mM glucose, 0.5 mM sulfinpyrazone, and 1% fetal bovine serum. […] Each well was assayed individually. Fluo-4 fluorescence (500 nm excitation, 535 nm emission) was detected every 200 ms for 16-40 s. Two seconds after the start of fluorescence recording, the reader automatically injected 165 μl of a modified PBS containing 136 mM KCl instead of NaCl. This solution also contained 10 mM glucose, 0.5 mM sulfinpyrazone, and UTP or SLIGR-NH2 (CAS #171436-38-7) at a final concentration that depended on the specific cell type. For UTP we used: 0.25 μM for FRT; 1 μM for HEKR2; 5 μM for HEK3XKO, HEKR1, and HEKR3. For SLIGR-NH2 we used: 10 μM for HEKR1; 4 μM for HEKR2. These concentrations were chosen to elicit ˜20% of maximal effect based on UTP and SLIGR-NH2 dose-response relationships. The lower agonist concentrations used for HEKR2 cells, compared to HEKR1 cells, are consistent with the higher affinity of ITPR2 for IP3 (16). The Fluo-4 fluorescence increase was quantified using a procedure compiled in Microsoft Excel after background subtraction and normalization for the initial value measured before UTP addition.
# In a further experimental setting, experiments were performed using as above the FLUOstar Omega (BMG Labtech, Offenburg, Germany) microplate reader equipped with syringe pumps and optical excitation/emission filters optimized for yellow fluorescent protein (YFP) fluorescence (ET500/20× and ET535/30m, respectively; Chroma Technology Corporation). FRT and Chem-1 cells were cultured until confluence in 96-well microplates (cc3603, Corning). Cells were washed 2 times with PBS (150 μl/wash) and then loaded for 1 h at 37° C. with 5 μM Fluo-4/AM (Thermo Fisher Scientific; catalog number: F23917) in PBS containing 10 mM glucose, 0.5 mM sulfinpyrazone, and 1% fetal bovine serum. […] Each well was assayed individually. Fluo-4 fluorescence (500 nm excitation, 535 nm emission) was detected every 200 ms for 16-40 s. Two seconds after the start of fluorescence recording, the reader automatically injected 165 μl of a modified PBS containing 136 mM KCl instead of NaCl. This solution also contained, in addition to 10 mM glucose and 0.5 mM sulfinpyrazone, the following agonists: UTP (U6625, Merck) or CCK8s (23371, Cayman Chemical). The Fluo-4 fluorescence increase was quantified using a procedure compiled in Microsoft Excel after background subtraction and normalization for the initial value measured before UTP or CCK8s addition.
# ITPR2 = target: T1, ITPR2 (Homo sapiens, UniProt Q14571); assay: Fluo-4 Ca2+ assay, UTP, HEK293 cells with selective expression of ITPR2 (HEKR2); type: cell-based; details: compounds 10 μM; UTP 1 μM; FIG. 2C
# T1 construct: host or cells: HEKR2 (HEK293)
# T1 sequence (Q14571 whole entry): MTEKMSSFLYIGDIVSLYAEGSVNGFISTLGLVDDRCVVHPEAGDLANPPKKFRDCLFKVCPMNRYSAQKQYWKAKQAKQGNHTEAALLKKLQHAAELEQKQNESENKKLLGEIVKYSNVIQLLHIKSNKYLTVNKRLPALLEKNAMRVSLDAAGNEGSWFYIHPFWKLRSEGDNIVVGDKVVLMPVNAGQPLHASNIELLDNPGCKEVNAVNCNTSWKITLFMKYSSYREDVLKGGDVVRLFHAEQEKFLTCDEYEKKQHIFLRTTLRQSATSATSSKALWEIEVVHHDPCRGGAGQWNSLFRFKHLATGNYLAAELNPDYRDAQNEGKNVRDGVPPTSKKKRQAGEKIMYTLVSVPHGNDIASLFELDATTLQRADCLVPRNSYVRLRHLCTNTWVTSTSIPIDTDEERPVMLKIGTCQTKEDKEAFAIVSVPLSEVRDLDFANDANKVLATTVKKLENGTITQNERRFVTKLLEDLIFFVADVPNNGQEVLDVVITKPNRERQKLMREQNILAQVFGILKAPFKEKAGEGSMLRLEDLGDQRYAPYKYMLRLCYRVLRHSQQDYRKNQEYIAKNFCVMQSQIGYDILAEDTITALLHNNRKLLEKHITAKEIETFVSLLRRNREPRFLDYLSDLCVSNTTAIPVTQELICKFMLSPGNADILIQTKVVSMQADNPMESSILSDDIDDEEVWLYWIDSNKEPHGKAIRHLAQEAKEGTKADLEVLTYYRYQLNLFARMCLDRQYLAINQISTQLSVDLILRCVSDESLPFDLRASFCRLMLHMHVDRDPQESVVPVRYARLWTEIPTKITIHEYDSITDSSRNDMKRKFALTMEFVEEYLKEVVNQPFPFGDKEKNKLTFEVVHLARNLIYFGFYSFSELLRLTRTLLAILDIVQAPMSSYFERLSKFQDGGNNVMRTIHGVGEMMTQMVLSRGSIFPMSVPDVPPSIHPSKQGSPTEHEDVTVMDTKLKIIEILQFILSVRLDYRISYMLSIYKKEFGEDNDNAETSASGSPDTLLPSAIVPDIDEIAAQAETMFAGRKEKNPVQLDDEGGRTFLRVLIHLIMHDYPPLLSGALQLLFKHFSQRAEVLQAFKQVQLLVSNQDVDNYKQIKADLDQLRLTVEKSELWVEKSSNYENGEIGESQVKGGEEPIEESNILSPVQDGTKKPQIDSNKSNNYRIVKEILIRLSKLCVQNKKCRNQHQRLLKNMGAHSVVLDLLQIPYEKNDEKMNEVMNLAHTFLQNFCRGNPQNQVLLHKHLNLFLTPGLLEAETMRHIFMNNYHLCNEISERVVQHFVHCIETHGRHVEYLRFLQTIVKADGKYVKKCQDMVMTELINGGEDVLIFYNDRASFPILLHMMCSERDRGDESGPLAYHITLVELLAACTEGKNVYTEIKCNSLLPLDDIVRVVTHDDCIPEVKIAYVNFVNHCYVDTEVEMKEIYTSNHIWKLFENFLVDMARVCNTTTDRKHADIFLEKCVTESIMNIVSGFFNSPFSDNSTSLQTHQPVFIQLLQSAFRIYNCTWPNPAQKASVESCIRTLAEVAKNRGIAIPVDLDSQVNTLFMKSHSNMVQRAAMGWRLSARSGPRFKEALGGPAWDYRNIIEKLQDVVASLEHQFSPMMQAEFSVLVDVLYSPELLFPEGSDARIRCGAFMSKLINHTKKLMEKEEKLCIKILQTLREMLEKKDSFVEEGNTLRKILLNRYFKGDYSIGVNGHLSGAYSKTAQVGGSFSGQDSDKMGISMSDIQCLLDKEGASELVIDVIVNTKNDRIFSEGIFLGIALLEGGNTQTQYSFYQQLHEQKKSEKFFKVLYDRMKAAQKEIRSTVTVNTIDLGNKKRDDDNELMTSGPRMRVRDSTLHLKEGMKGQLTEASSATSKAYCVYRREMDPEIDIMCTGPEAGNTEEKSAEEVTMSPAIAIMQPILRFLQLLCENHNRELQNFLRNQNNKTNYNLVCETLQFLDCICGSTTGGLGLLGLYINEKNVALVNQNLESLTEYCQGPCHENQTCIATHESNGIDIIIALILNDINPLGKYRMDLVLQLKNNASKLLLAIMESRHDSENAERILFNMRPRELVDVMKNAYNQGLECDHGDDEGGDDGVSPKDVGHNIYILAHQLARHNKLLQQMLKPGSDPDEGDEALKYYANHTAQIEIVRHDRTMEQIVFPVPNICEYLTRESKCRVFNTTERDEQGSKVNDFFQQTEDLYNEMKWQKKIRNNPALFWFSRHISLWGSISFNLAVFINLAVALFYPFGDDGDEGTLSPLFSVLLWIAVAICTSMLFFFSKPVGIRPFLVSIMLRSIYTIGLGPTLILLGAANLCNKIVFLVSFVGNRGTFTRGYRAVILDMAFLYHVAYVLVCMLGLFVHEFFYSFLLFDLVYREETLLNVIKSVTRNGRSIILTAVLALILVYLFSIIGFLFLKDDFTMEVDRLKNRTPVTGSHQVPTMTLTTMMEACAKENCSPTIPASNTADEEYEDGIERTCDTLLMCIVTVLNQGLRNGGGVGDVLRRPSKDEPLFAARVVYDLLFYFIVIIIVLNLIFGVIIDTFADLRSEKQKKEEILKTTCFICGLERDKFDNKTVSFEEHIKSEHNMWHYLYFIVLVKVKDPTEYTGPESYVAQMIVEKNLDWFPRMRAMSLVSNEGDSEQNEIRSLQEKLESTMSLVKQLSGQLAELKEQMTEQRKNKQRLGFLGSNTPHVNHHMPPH
# Procedure: HEK293 cells totally devoid of ITPR expression (HEK3XKO) or with selective expression of ITPR1 (HEKR1), ITPR2 (HEKR2), or ITPR3 (HEKR3), obtained by selective gene ablation, were purchased from Kerafast (catalog number: EURO30, EURO31, EURO32, EURO33) and cultured in a mixture of Dulbecco's Modified Eagle Medium (DMEM, high glucose version) and Ham's F12 (1:1) and supplemented with 10% fetal bovine serum, 2 mM L-glutamine, 100 U/ml penicillin and 100 μg/ml streptomycin.
# Experiments were performed using the microplate reader described for the HS-YFP assay. FRT and HEK293 cells were cultured until confluence in 96-well microplates (3603, Corning). Cells were washed 2 times with PBS (150 μl/wash) and then loaded for 1 h at 37° C. with 5 μM Fluo-4/AM (Thermo Fisher Scientific; catalog number: F23917) in PBS containing 10 mM glucose, 0.5 mM sulfinpyrazone, and 1% fetal bovine serum. After loading, cells were washed 2 times with PBS-glucose-sulfinpyrazone (150 μl/wash) and incubated for 20 min at 37° C. with 60 μl of PBS plus 10 mM glucose and 0.5 mM sulfinpyrazone containing compounds of interest at 10 μM final concentration or vehicle. Each well was assayed individually. Fluo-4 fluorescence (500 nm excitation, 535 nm emission) was detected every 200 ms for 16-40 s. Two seconds after the start of fluorescence recording, the reader automatically injected 165 μl of a modified PBS containing 136 mM KCl instead of NaCl. This solution also contained 10 mM glucose, 0.5 mM sulfinpyrazone, and UTP or SLIGR-NH2 (CAS #171436-38-7) at a final concentration that depended on the specific cell type. For UTP we used: 0.25 μM for FRT; 1 μM for HEKR2; 5 μM for HEK3XKO, HEKR1, and HEKR3. For SLIGR-NH2 we used: 10 μM for HEKR1; 4 μM for HEKR2. These concentrations were chosen to elicit ˜20% of maximal effect based on UTP and SLIGR-NH2 dose-response relationships. […] The Fluo-4 fluorescence increase was quantified using a procedure compiled in Microsoft Excel after background subtraction and normalization for the initial value measured before UTP addition.
compound,measurement,setting,value
"OCc1ccccc1CN(Cc1ccnc(N2CCCC2)n1)c1ccc(F)cc1 [ARN4550, [2-[[4-Fluoro-N-[(2-pyrrolidin-1-ylpyrimidin-4-yl)methyl]anilino]methyl]phenyl]methanol]",direct Ca2+ mobilization in the absence of UTP (Fluo-4),FRT cells,No effect
same,potentiation of UTP-dependent Ca2+ increase (Fluo-4),FRT cells; UTP 0.25 μM,able to potentiate
same,"potentiation of UTP-elicited Ca2+ increase, ITPR2-only cells",ITPR2,always effective
"CCc1cc(-c2cc(NCCCOc3ccccc3C)nc(N)n2)n(C)n1 [ARN7149, 6-(3-Ethyl-1-methyl-1H-pyrazol-5-yl)-N^4-(3-(o-tolyloxy)propyl)pyrimidine-2,4-diamine]",direct Ca2+ mobilization in the absence of UTP (Fluo-4),FRT cells,No effect
same,potentiation of UTP-dependent Ca2+ increase (Fluo-4),FRT cells; UTP 0.25 μM,able to potentiate
same,"potentiation of UTP-elicited Ca2+ increase, ITPR2-only cells",ITPR2,always effective
"CCn1nc2c(c1C(=O)Nc1ccccc1OCC1CCCCO1)CCCC2 (stereo not shown) [ARN11391, 2-Ethyl-N-[2-(tetrahydropyran-2-ylmethoxy)phenyl]-4,5,6,7-tetrahydroindazole-3-carboxamide]","potentiation of the Ca2+ increase elicited by UTP, multiple concentrations","FRT cells; UTP 0.25 μM, compounds 1-80 μM, vs vehicle (DMSO), FIG. 8",dose-dependent potentiation
same,direct Ca2+ mobilization in the absence of UTP (Fluo-4),FRT cells,No effect
same,potentiation of UTP-dependent Ca2+ increase (Fluo-4),FRT cells; UTP 0.25 μM,able to potentiate
same,"potentiation of UTP-elicited Ca2+ increase, ITPR2-only cells",ITPR2,only effective in cells with ITPR1
